The nature of this data set: Human HepG2 cell viability assay in 384 well format. Conditions: HepG2 cells, read-out: Inhibition. Type of data set: toxicity, cell-based. More on the design: dose 125 nL, time 70.5 hour; cytotoxicity at 70.5 h: concentration not given beside the values.
For the compound `Cc1ccc(CN2CCc3ncc(CNS(C)(=O)=O)n3CC2)o1`, the cytotoxicity at 70.5 h is -12.4%.

Turning to `CCNC(=O)[C@@H]1C[C@H](n2cc(CC3CCCCC3)nn2)CN1`, the cytotoxicity at 70.5 h was -7.89%.

For `Fc1ccc(C2CN(c3ncnc4nc[nH]c34)CCO2)cc1` (centres undefined), the cytotoxicity at 70.5 h is -11.9%.

As to `CC1(C)CC(N2CCN(C3CCCC3)C(CCO)C2)CC(C)(C)C1` (centres undefined), the cytotoxicity at 70.5 h is -8.65%.

As to `Cc1cnc(C)c(N2C[C@H]3OC(=O)N(C4CCCC4)[C@H]3C2)n1`, the cytotoxicity at 70.5 h was -6.45%.

For the compound `CN(C)C(=O)Cn1cc(C(=O)NCCc2ccc(C(F)(F)F)cc2)nn1`, the cytotoxicity at 70.5 h turned out to be 30.1%.

In the case of `CCN1CCc2c(CNC(=O)c3nccn3C)cncc2C1`, the cytotoxicity at 70.5 h is -10.7%.

For the compound `CC(C)c1ncc2c(n1)CN(Cc1nc(-c3ccsc3)no1)CC2`, the cytotoxicity at 70.5 h was -13.7%.

As for `Cc1cc(CN(C)C(=O)C2CCC(=O)N(CC3CCCCC3)C2)n[nH]1` (centres undefined), the cytotoxicity at 70.5 h was -8.5%.

Consider `Cc1cc(C)n(Cc2ccc(C(=O)NCCN3CCOCC3)cc2)n1`, for which the cytotoxicity at 70.5 h was determined as 1.27%.

With `CNc1ncc2c(n1)CN(C1CC(C)(C)NC(C)(C)C1)C2=O`, the cytotoxicity at 70.5 h was -12.6%.

`O=C(CC1CC1)N1CCC2(CC1)CN(c1ncccn1)CCO2`: the cytotoxicity at 70.5 h was -7.66%.

For the compound `COCCN(Cc1ccco1)Cc1nc(-c2ccccc2C)no1`, the cytotoxicity at 70.5 h was 1.45%.

Regarding `CCc1nc2n(n1)CC(NCc1cc(OC)c3c(c1)OCCO3)CC2` (centres undefined), the cytotoxicity at 70.5 h was -5.82%.

For `Cc1nnc(NC(=O)CSCc2cc(=O)n3ccccc3n2)s1`, the cytotoxicity at 70.5 h is -4.73%.

With `Cc1nc(Nc2ccccn2)cc(N2CCN(S(C)(=O)=O)CC2)n1`, the cytotoxicity at 70.5 h was found to be 11.2%.

As to `Cc1ccc(C(=O)NC(C)Cn2cccn2)c(=O)[nH]1` (centres undefined), the cytotoxicity at 70.5 h was 8.15%.

Regarding `CC(C)CCN1CC2(CCN(C(=O)C3(C)CCCCO3)CC2)OC1=O` (centres undefined), the cytotoxicity at 70.5 h amounted to 49.2%.

`OC(CN1CCN(Cc2cc(F)ccc2F)CC1)C1CC1` (centres undefined): the cytotoxicity at 70.5 h amounted to 0.724%.

On to `Cc1ccc(OCC2CCCN(c3nc(CO)cs3)C2)cc1` (centres undefined), for which the cytotoxicity at 70.5 h was -0.763%.

Consider `COc1ccccc1-n1cc(CN2CCN(C)[C@@H]3CS(=O)(=O)C[C@@H]32)cn1`, for which the cytotoxicity at 70.5 h is -7.42%.

Take `COCCN1CCC(c2ncc(C(=O)N3CCOCC3)c(C)n2)CC1`: the cytotoxicity at 70.5 h is -1.72%.

For the compound `CC(C)N1CCCC1c1csc(N)n1` (centres undefined), the cytotoxicity at 70.5 h was -1.44%.

On to `N#Cc1ccccc1C(=O)N1C[C@H]2CC[C@@H]1CN(c1ncccn1)C2`, for which the cytotoxicity at 70.5 h is 18.3%.

For the compound `CC[C@H]1CN2CC[C@H]1C[C@@H]2CNCc1ccc(N(C)C)cc1`, the cytotoxicity at 70.5 h is 26.4%.

As for `COc1ccc(CSc2nnc(N)n2C2CC2)cc1Cl`, the cytotoxicity at 70.5 h was -8.32%.

As to `CC(=O)N1CCCC(Cc2cncc(Br)c2)C1` (centres undefined), the cytotoxicity at 70.5 h was -1.98%.

As for `CCCn1nc(C)c(CN2CC3(CCOC3)CCC2=O)c1C` (centres undefined), the cytotoxicity at 70.5 h was -8.62%.

For the compound `CNC(=O)CCc1cc(C)nc(C2CCN(C(=O)CN(C)C)CC2)c1`, the cytotoxicity at 70.5 h was -3.32%.

On to `COCCNC(=O)Nc1ccc(CN2CCOC2=O)cc1`, for which the cytotoxicity at 70.5 h was -7%.

As to `CCOc1cc(C)c(-c2cc(N)[nH]n2)cc1OCC`, the cytotoxicity at 70.5 h is -8.56%.

`CCOCCCC(=O)N1CCN(c2cccc(OC)c2)C(C)C1` (centres undefined): the cytotoxicity at 70.5 h stood at 12.3%.

On to `C[C@@H]1CN(CC(C)(C)N2CCOCC2)CC[C@@]1(O)C1CCOCC1`, for which the cytotoxicity at 70.5 h came out at 7.82%.

For `CC(C)c1nc(C2CCCN2CCNS(C)(=O)=O)no1` (centres undefined), the cytotoxicity at 70.5 h is -19.2%.

For `Cn1cccc1CN1CCC2(CCCN(C(=O)Cc3cccnc3)C2)C1` (centres undefined), the cytotoxicity at 70.5 h was found to be 24.8%.

On to `CN(C(=O)Cn1nc(-c2cccs2)ccc1=O)C1CCS(=O)(=O)C1` (centres undefined), for which the cytotoxicity at 70.5 h is 11.2%.

Consider `COCC(=O)N1CCCC(c2cccc(-n3ccnc3)n2)C1` (centres undefined), for which the cytotoxicity at 70.5 h amounted to 4.64%.

With `CC(=O)N1CCCC1c1nc(C)no1` (centres undefined), the cytotoxicity at 70.5 h was 15.6%.

Regarding `CCc1cc(N2CCC(N3CCSCC3)CC2)n2nccc2n1`, the cytotoxicity at 70.5 h was -7.5%.
